In PubChem BioAssay AID2060484 (Molecular Pharmacology Branch, DTP, NCI, 2025):

System: SUM149PT spheroids with HUVEC/MSC, viability
Test: Anticancer human tumor SUM149PT cell line growth inhibition [GQUAD];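 note: spheroids exposed to drugs for seven days before readout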;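 for viability, T/C: percent viability relative to DMSO vehicle control taken as 100%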
Settings: for IC50: curve of first compound; for viability, T/C: stronger effect = lower value
In short: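 Viability of tumor cells grown as complex spheroids with endothelial and stromal cells, exposed to drug combinations. Top concentration at or near clinical Cmax (else 10 microM), diluted in half-log increments.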

[1] = second compound 0.0316 µM, first compound 0.0316 µM
[2] = second compound 0.0316 µM, first compound 0.1 µM
[3] = second compound 0.0316 µM, first compound 0.316 µM
[4] = second compound 0.0316 µM, first compound 1 µM
[5] = second compound 0.0316 µM, first compound 3.16 µM
[6] = second compound 0.0316 µM, first compound 10 µM
[7] = second compound 0.1 µM, first compound 0.0316 µM
[8] = second compound 0.1 µM, first compound 0.1 µM
[9] = second compound 0.1 µM, first compound 0.316 µM
[10] = second compound 0.1 µM, first compound 1 µM
[11] = second compound 0.1 µM, first compound 3.16 µM
[12] = second compound 0.1 µM, first compound 10 µM
[13] = second compound 0.316 µM, first compound 0.0316 µM
[14] = second compound 0.316 µM, first compound 0.1 µM
[15] = second compound 0.316 µM, first compound 0.316 µM
[16] = second compound 0.316 µM, first compound 1 µM
[17] = second compound 0.316 µM, first compound 3.16 µM
[18] = second compound 0.316 µM, first compound 10 µM
[19] = second compound 1 µM, first compound 0.0316 µM
[20] = second compound 1 µM, first compound 0.1 µM
[21] = second compound 1 µM, first compound 0.316 µM
[22] = second compound 1 µM, first compound 1 µM
[23] = second compound 1 µM, first compound 3.16 µM
[24] = second compound 1 µM, first compound 10 µM
[25] = second compound 3.16 µM, first compound 0.0316 µM
[26] = second compound 3.16 µM, first compound 0.1 µM
[27] = second compound 3.16 µM, first compound 0.316 µM
[28] = second compound 3.16 µM, first compound 1 µM
[29] = second compound 3.16 µM, first compound 3.16 µM
[30] = second compound 3.16 µM, first compound 10 µM
[31] = second compound 10 µM, first compound 0.0316 µM
[32] = second compound 10 µM, first compound 0.1 µM
[33] = second compound 10 µM, first compound 0.316 µM
[34] = second compound 10 µM, first compound 1 µM
[35] = second compound 10 µM, first compound 3.16 µM
[36] = second compound 10 µM, first compound 10 µM
[37] = second compound 0.0316 µM, first compound 0.000999 µM
[38] = second compound 0.0316 µM, first compound 0.00316 µM
[39] = second compound 0.0316 µM, first compound 0.00999 µM
[40] = second compound 0.0316 µM, first compound 0.0999 µM
[41] = second compound 0.1 µM, first compound 0.000999 µM
[42] = second compound 0.1 µM, first compound 0.00316 µM
[43] = second compound 0.1 µM, first compound 0.00999 µM
[44] = second compound 0.1 µM, first compound 0.0999 µM
[45] = second compound 0.316 µM, first compound 0.000999 µM
[46] = second compound 0.316 µM, first compound 0.00316 µM
[47] = second compound 0.316 µM, first compound 0.00999 µM
[48] = second compound 0.316 µM, first compound 0.0999 µM
[49] = second compound 1 µM, first compound 0.000999 µM
[50] = second compound 1 µM, first compound 0.00316 µM
[51] = second compound 1 µM, first compound 0.00999 µM
[52] = second compound 1 µM, first compound 0.0999 µM
[53] = second compound 3.16 µM, first compound 0.000999 µM
[54] = second compound 3.16 µM, first compound 0.00316 µM
[55] = second compound 3.16 µM, first compound 0.00999 µM
[56] = second compound 3.16 µM, first compound 0.0999 µM
[57] = second compound 10 µM, first compound 0.000999 µM
[58] = second compound 10 µM, first compound 0.00316 µM
[59] = second compound 10 µM, first compound 0.00999 µM
[60] = second compound 10 µM, first compound 0.0999 µM

## C=CC(=O)N1CCN(c2nc(=O)n(-c3c(C)ccnc3C(C)C)c3nc(-c4c(O)cccc4F)c(F)cc23)C(C)C1 (stereo not drawn) + Cc1cnc(CNC(=O)c2c(=O)c3ccc(N4CCCN(C)CC4)nc3n3c2sc2ccccc23)cn1
Second compound 0.0316 µM
  IC50: > 10000 nM
Second compound 0.1 µM
  IC50: > 10000 nM
Second compound 0.316 µM
  IC50: > 10000 nM
Second compound 1 µM
  IC50: < 31.6 nM
Second compound 3.16 µM
  IC50: < 31.6 nM
Second compound 10 µM
  IC50: < 31.6 nM
[1]
  viability, T/C: 92.7%
[2]
  viability, T/C: 82.8%
[3]
  viability, T/C: 103%
[4]
  viability, T/C: 103%
[5]
  viability, T/C: 123%
[6]
  viability, T/C: 106%
[7]
  viability, T/C: 62.4%
[8]
  viability, T/C: 66.6%
[9]
  viability, T/C: 76.5%
[10]
  viability, T/C: 77.1%
[11]
  viability, T/C: 85.4%
[12]
  viability, T/C: 70%
[13]
  viability, T/C: 61.9%
[14]
  viability, T/C: 54.8%
[15]
  viability, T/C: 56.5%
[16]
  viability, T/C: 65.9%
[17]
  viability, T/C: 66.9%
[18]
  viability, T/C: 59.3%
[19]
  viability, T/C: 50%
[20]
  viability, T/C: 46.1%
[21]
  viability, T/C: 48.7%
[22]
  viability, T/C: 51.6%
[23]
  viability, T/C: 56.3%
[24]
  viability, T/C: 46.7%
[25]
  viability, T/C: 40.7%
[26]
  viability, T/C: 38.4%
[27]
  viability, T/C: 42.5%
[28]
  viability, T/C: 45.6%
[29]
  viability, T/C: 47%
[30]
  viability, T/C: 41.2%
[31]
  viability, T/C: 0.28%
[32]
  viability, T/C: 2.73%
[33]
  viability, T/C: 1.23%
[34]
  viability, T/C: 2.1%
[35]
  viability, T/C: 3.34%
[36]
  viability, T/C: 0.29%

## CCc1c2c(nc3ccc(O)cc13)-c1cc3c(c(=O)n1C2)COC(=O)[C@]3(O)CC + Cc1cnc(CNC(=O)c2c(=O)c3ccc(N4CCCN(C)CC4)nc3n3c2sc2ccccc23)cn1
Second compound 0.0316 µM
  IC50: < 0.999 nM
Second compound 0.1 µM
  IC50: < 0.999 nM
Second compound 0.316 µM
  IC50: < 0.999 nM
Second compound 1 µM
  IC50: < 0.999 nM
Second compound 3.16 µM
  IC50: < 0.999 nM
Second compound 10 µM
  IC50: < 0.999 nM
[37]
  viability, T/C: 45%
[38]
  viability, T/C: 30.6%
[39]
  viability, T/C: 42.1%
[1]
  viability, T/C: 30.6%
[40]
  viability, T/C: 25.9%
[3]
  viability, T/C: 12.1%
[41]
  viability, T/C: 38.9%
[42]
  viability, T/C: 40.9%
[43]
  viability, T/C: 44.6%
[7]
  viability, T/C: 38.9%
[44]
  viability, T/C: 25.1%
[9]
  viability, T/C: 10.2%
[45]
  viability, T/C: 38.7%
[46]
  viability, T/C: 42.8%
[47]
  viability, T/C: 41.1%
[13]
  viability, T/C: 33.8%
[48]
  viability, T/C: 21.8%
[15]
  viability, T/C: 10.8%
[49]
  viability, T/C: 37%
[50]
  viability, T/C: 41.2%
[51]
  viability, T/C: 37.1%
[19]
  viability, T/C: 35.5%
[52]
  viability, T/C: 19.7%
[21]
  viability, T/C: 8.28%
[53]
  viability, T/C: 33.1%
[54]
  viability, T/C: 38.7%
[55]
  viability, T/C: 37.1%
[25]
  viability, T/C: 31%
[56]
  viability, T/C: 21.9%
[27]
  viability, T/C: 3.55%
[57]
  viability, T/C: 0.16%
[58]
  viability, T/C: 3.09%
[59]
  viability, T/C: 0.98%
[31]
  viability, T/C: 1.56%
[60]
  viability, T/C: 1.51%
[33]
  viability, T/C: 1.72%

## Cc1cccc(N(C)C(=O)C2C(O)CCN2c2nc(C)cc(C(F)(F)F)c2C#N)c1 (stereo not drawn) + Cc1cnc(CNC(=O)c2c(=O)c3ccc(N4CCCN(C)CC4)nc3n3c2sc2ccccc23)cn1
Second compound 0.0316 µM
  IC50: > 10000 nM
Second compound 0.1 µM
  IC50: > 10000 nM
Second compound 0.316 µM
  IC50: > 10000 nM
Second compound 1 µM
  IC50: < 31.6 nM
Second compound 3.16 µM
  IC50: < 31.6 nM
Second compound 10 µM
  IC50: < 31.6 nM
[1]
  viability, T/C: 104%
[2]
  viability, T/C: 86.5%
[3]
  viability, T/C: 85%
[4]
  viability, T/C: 88.9%
[5]
  viability, T/C: 88%
[6]
  viability, T/C: 95.4%
[7]
  viability, T/C: 63.1%
[8]
  viability, T/C: 61.9%
[9]
  viability, T/C: 78.3%
[10]
  viability, T/C: 64.9%
[11]
  viability, T/C: 75.6%
[12]
  viability, T/C: 66.5%
[13]
  viability, T/C: 61%
[14]
  viability, T/C: 62.7%
[15]
  viability, T/C: 57.4%
[16]
  viability, T/C: 58.6%
[17]
  viability, T/C: 59.5%
[18]
  viability, T/C: 61.3%
[19]
  viability, T/C: 45.5%
[20]
  viability, T/C: 47.5%
[21]
  viability, T/C: 48.6%
[22]
  viability, T/C: 45.4%
[23]
  viability, T/C: 49.6%
[24]
  viability, T/C: 49.4%
[25]
  viability, T/C: 39.2%
[26]
  viability, T/C: 41.1%
[27]
  viability, T/C: 41.8%
[28]
  viability, T/C: 42.5%
[29]
  viability, T/C: 41.2%
[30]
  viability, T/C: 46.9%
[31]
  viability, T/C: 11%
[32]
  viability, T/C: 11.9%
[33]
  viability, T/C: 33.3%
[34]
  viability, T/C: 30.9%
[35]
  viability, T/C: 25%
[36]
  viability, T/C: 0.29%

## Cn1ncnc1[C@H]1c2n[nH]c(=O)c3cc(F)cc(c23)N[C@@H]1c1ccc(F)cc1 + Cc1cnc(CNC(=O)c2c(=O)c3ccc(N4CCCN(C)CC4)nc3n3c2sc2ccccc23)cn1
Second compound 0.0316 µM
  IC50: 145 nM
Second compound 0.1 µM
  IC50: 28.6 nM
Second compound 0.316 µM
  IC50: 5.8 nM
Second compound 1 µM
  IC50: < 0.999 nM
Second compound 3.16 µM
  IC50: < 0.999 nM
Second compound 10 µM
  IC50: < 0.999 nM
[37]
  viability, T/C: 92.1%
[38]
  viability, T/C: 68.9%
[39]
  viability, T/C: 77.1%
[1]
  viability, T/C: 68.2%
[40]
  viability, T/C: 50.4%
[3]
  viability, T/C: 42.5%
[41]
  viability, T/C: 71.2%
[42]
  viability, T/C: 63%
[43]
  viability, T/C: 53.7%
[7]
  viability, T/C: 52.2%
[44]
  viability, T/C: 43.2%
[9]
  viability, T/C: 40.8%
[45]
  viability, T/C: 53.9%
[46]
  viability, T/C: 53.4%
[47]
  viability, T/C: 48.7%
[13]
  viability, T/C: 45.4%
[48]
  viability, T/C: 41.1%
[15]
  viability, T/C: 41.6%
[49]
  viability, T/C: 47.8%
[50]
  viability, T/C: 48.8%
[51]
  viability, T/C: 38.5%
[19]
  viability, T/C: 41.1%
[52]
  viability, T/C: 38.5%
[21]
  viability, T/C: 34.2%
[53]
  viability, T/C: 38.5%
[54]
  viability, T/C: 39.5%
[55]
  viability, T/C: 34.4%
[25]
  viability, T/C: 34.6%
[56]
  viability, T/C: 35.3%
[27]
  viability, T/C: 33.4%
[57]
  viability, T/C: 10.1%
[58]
  viability, T/C: 9.37%
[59]
  viability, T/C: 33.9%
[31]
  viability, T/C: 28.9%
[60]
  viability, T/C: 9.31%
[33]
  viability, T/C: 0.26%
